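A five-concentration, 48-hour dose response in 96-well plates underlies each endpoint, interpolated linearly between surrounding concentrations. GI50 marks 50% less growth.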 Calls of active or inactive are those of the source. Rule as the data show it: active = GI50 up to about 1.1 µM and inactive = higher.
Key:
Experiment in all cases: NCI tumour cell line growth inhibition, 48 h
786-0 = tested on: 786-0
A498 = tested on: A498
A549 = tested on: A549
CCRF-CEM = tested on: CCRF-CEM
COLO 205 = tested on: COLO 205
HCT-116 = tested on: HCT-116
HOP-62 = tested on: HOP-62
HT-29 = tested on: HT-29
IGROV-1 = tested on: IGROV-1
OVCAR-8 = tested on: OVCAR-8
SF-539 = tested on: SF-539
SK-MEL-28 = tested on: SK-MEL-28
SK-MEL-5 = tested on: SK-MEL-5
SNB-19 = tested on: SNB-19
TK-10 = tested on: TK-10
U-251 = tested on: U-251
UACC-62 = tested on: UACC-62
OVCAR-3 = tested on: OVCAR-3

Structure (SMILES)	GI50 (786-0)	GI50 (A498)	GI50 (A549)	GI50 (CCRF-CEM)	GI50 (COLO 205)	GI50 (HCT-116)	GI50 (HOP-62)	GI50 (HT-29)	GI50 (IGROV-1)	GI50 (OVCAR-8)	GI50 (SF-539)	GI50 (SK-MEL-28)	GI50 (SK-MEL-5)	GI50 (SNB-19)	GI50 (TK-10)	GI50 (U-251)	GI50 (UACC-62)	GI50 (OVCAR-3)
COC(=O)[C@@]12OC[C@]34C([C@@H](O)C1O)[C@@]1(C)CC(=O)C(O)=C(C)C1C[C@H]3OC(=O)[C@H](OC(=O)/C=C(/c1ccccc1)C(F)(F)F)[C@H]42 (some centres undefined)	7.93 µM (inactive)	1.82 µM (inactive)	4.33 µM (inactive)	3.88 µM (inactive)	6.67 µM (inactive)	2.43 µM (inactive)	5.96 µM (inactive)	2.18 µM (inactive)	2.16 µM (inactive)	10.5 µM (inactive)	1 µM (active)	4.72 µM (inactive)	3.28 µM (inactive)	3.62 µM (inactive)	7.74 µM (inactive)	4.41 µM (inactive)	2.05 µM (inactive)	–
CC1SC2=NC3=C(c4ccccc4C3=O)C(c3ccc(F)cc3)N2C1=O (centres undefined)	> 100 µM (inactive)	> 100 µM (inactive)	> 100 µM (inactive)	> 100 µM (inactive)	> 100 µM (inactive)	> 100 µM (inactive)	> 100 µM (inactive)	> 100 µM (inactive)	> 100 µM (inactive)	> 100 µM (inactive)	> 100 µM (inactive)	> 100 µM (inactive)	> 100 µM (inactive)	> 100 µM (inactive)	> 100 µM (inactive)	> 100 µM (inactive)	64.1 µM (inactive)	> 100 µM (inactive)
C/C(=C\c1ccccc1)C(=O)c1c(C)cc(C)cc1C	> 100 µM (inactive)	–	> 100 µM (inactive)	> 100 µM (inactive)	> 100 µM (inactive)	> 100 µM (inactive)	> 100 µM (inactive)	> 100 µM (inactive)	> 100 µM (inactive)	> 100 µM (inactive)	> 100 µM (inactive)	> 100 µM (inactive)	> 100 µM (inactive)	> 100 µM (inactive)	> 100 µM (inactive)	> 100 µM (inactive)	> 100 µM (inactive)	> 100 µM (inactive)
CCCCCCCCCCCCCP(=O)(NCC(N)=O)OCC (centres undefined)	15.4 µM (inactive)	35.6 µM (inactive)	20.3 µM (inactive)	22.6 µM (inactive)	17.2 µM (inactive)	14.8 µM (inactive)	17.3 µM (inactive)	17.2 µM (inactive)	18.5 µM (inactive)	21.4 µM (inactive)	17.4 µM (inactive)	18.2 µM (inactive)	18.5 µM (inactive)	18.7 µM (inactive)	18.7 µM (inactive)	17.3 µM (inactive)	16.3 µM (inactive)	15.3 µM (inactive)
O=C1/C(=C/c2ccccc2)CN(C(=O)Oc2ccccc2)C/C1=C\c1ccccc1	10.5 µM (inactive)	57.4 µM (inactive)	> 100 µM (inactive)	6.44 µM (inactive)	> 100 µM (inactive)	6.81 µM (inactive)	11.2 µM (inactive)	> 100 µM (inactive)	21.6 µM (inactive)	28.2 µM (inactive)	5.36 µM (inactive)	> 100 µM (inactive)	> 100 µM (inactive)	13.2 µM (inactive)	17 µM (inactive)	18.7 µM (inactive)	46.3 µM (inactive)	99.5 µM (inactive)
CCOC(=O)C1=C(C)N(Cc2ccccc2)C(=O)C1CC#N (centres undefined)	> 100 µM (inactive)	> 100 µM (inactive)	> 100 µM (inactive)	31.6 µM (inactive)	> 100 µM (inactive)	> 100 µM (inactive)	> 100 µM (inactive)	> 100 µM (inactive)	> 100 µM (inactive)	83.9 µM (inactive)	> 100 µM (inactive)	> 100 µM (inactive)	–	> 100 µM (inactive)	–	> 100 µM (inactive)	80 µM (inactive)	> 100 µM (inactive)
COc1ccc(S(=O)(=O)NNS(C)(=O)=O)cc1OC	> 100 µM (inactive)	> 100 µM (inactive)	> 100 µM (inactive)	> 100 µM (inactive)	> 100 µM (inactive)	–	> 100 µM (inactive)	> 100 µM (inactive)	> 100 µM (inactive)	> 100 µM (inactive)	> 100 µM (inactive)	–	> 100 µM (inactive)	> 100 µM (inactive)	> 100 µM (inactive)	> 100 µM (inactive)	> 100 µM (inactive)	–
CCC(C)CC(C)CC(C)/C=C(\C)C1=C(C)CC(C)(O)O1 (centres undefined)	9.53 µM (inactive)	> 100 µM (inactive)	85.7 µM (inactive)	52.6 µM (inactive)	> 100 µM (inactive)	41 µM (inactive)	–	93.8 µM (inactive)	> 100 µM (inactive)	69.7 µM (inactive)	> 100 µM (inactive)	> 100 µM (inactive)	92.5 µM (inactive)	–	> 100 µM (inactive)	61.8 µM (inactive)	> 100 µM (inactive)	–
COC1C2c3cc4c(cc3CC(C#N)(c3ccccc32)N1C(=O)c1ccccc1)OCO4 (centres undefined)	> 100 µM (inactive)	–	–	> 100 µM (inactive)	> 100 µM (inactive)	> 100 µM (inactive)	48 µM (inactive)	> 100 µM (inactive)	> 100 µM (inactive)	> 100 µM (inactive)	> 100 µM (inactive)	> 100 µM (inactive)	33 µM (inactive)	> 100 µM (inactive)	> 100 µM (inactive)	> 100 µM (inactive)	4.94 µM (inactive)	> 100 µM (inactive)
CC[C@@H]1OC2(C)CC(S(=O)(=O)c3ccccc3)CC1O2 (some centres undefined)	> 100 µM (inactive)	–	> 100 µM (inactive)	> 100 µM (inactive)	> 100 µM (inactive)	> 100 µM (inactive)	> 100 µM (inactive)	> 100 µM (inactive)	> 100 µM (inactive)	> 100 µM (inactive)	> 100 µM (inactive)	> 100 µM (inactive)	> 100 µM (inactive)	> 100 µM (inactive)	–	> 100 µM (inactive)	> 100 µM (inactive)	> 100 µM (inactive)
CC(=O)C1CC2(c3ccccc3)C(=O)c3ccccc3N2O1 (centres undefined)	> 100 µM (inactive)	> 100 µM (inactive)	> 100 µM (inactive)	> 100 µM (inactive)	> 100 µM (inactive)	> 100 µM (inactive)	> 100 µM (inactive)	> 100 µM (inactive)	> 100 µM (inactive)	> 100 µM (inactive)	> 100 µM (inactive)	> 100 µM (inactive)	> 100 µM (inactive)	> 100 µM (inactive)	–	> 100 µM (inactive)	> 100 µM (inactive)	–
Nc1ccc(C(=O)N/C(=C\c2ccc3c(c2)OCO3)c2nc3c(O)nc(S)nc3[nH]2)cc1	> 100 µM (inactive)	–	> 100 µM (inactive)	> 100 µM (inactive)	> 100 µM (inactive)	–	–	> 100 µM (inactive)	> 100 µM (inactive)	> 100 µM (inactive)	> 100 µM (inactive)	> 100 µM (inactive)	> 100 µM (inactive)	> 100 µM (inactive)	> 100 µM (inactive)	> 100 µM (inactive)	> 100 µM (inactive)	> 100 µM (inactive)
COCC(C)(C)/N=C/N1Cc2cc3ccccc3nc2C1	> 100 µM (inactive)	–	> 100 µM (inactive)	> 100 µM (inactive)	> 100 µM (inactive)	> 100 µM (inactive)	93.8 µM (inactive)	> 100 µM (inactive)	> 100 µM (inactive)	> 100 µM (inactive)	> 100 µM (inactive)	> 100 µM (inactive)	> 100 µM (inactive)	> 100 µM (inactive)	> 100 µM (inactive)	> 100 µM (inactive)	> 100 µM (inactive)	75.5 µM (inactive)
O=C(Cc1ccccc1)NS(=O)(=O)c1ccccc1	> 100 µM (inactive)	> 100 µM (inactive)	> 100 µM (inactive)	> 100 µM (inactive)	> 100 µM (inactive)	> 100 µM (inactive)	> 100 µM (inactive)	> 100 µM (inactive)	> 100 µM (inactive)	> 100 µM (inactive)	> 100 µM (inactive)	> 100 µM (inactive)	–	> 100 µM (inactive)	> 100 µM (inactive)	> 100 µM (inactive)	> 100 µM (inactive)	> 100 µM (inactive)
COc1ccc(CCc2ccccc2CC(=O)O)cc1	> 100 µM (inactive)	> 100 µM (inactive)	> 100 µM (inactive)	> 100 µM (inactive)	> 100 µM (inactive)	> 100 µM (inactive)	–	> 100 µM (inactive)	> 100 µM (inactive)	> 100 µM (inactive)	> 100 µM (inactive)	> 100 µM (inactive)	> 100 µM (inactive)	> 100 µM (inactive)	> 100 µM (inactive)	> 100 µM (inactive)	> 100 µM (inactive)	> 100 µM (inactive)
CC(=O)N(C(C)=O)c1c(N)n(C)c(=O)[nH]c1=O	> 100 µM (inactive)	> 100 µM (inactive)	> 100 µM (inactive)	> 100 µM (inactive)	> 100 µM (inactive)	> 100 µM (inactive)	–	> 100 µM (inactive)	> 100 µM (inactive)	> 100 µM (inactive)	> 100 µM (inactive)	> 100 µM (inactive)	> 100 µM (inactive)	> 100 µM (inactive)	–	–	> 100 µM (inactive)	> 100 µM (inactive)
Cn1c2ccccc2n2c(=O)c3c(c(C#N)c12)CCCC3	> 100 µM (inactive)	> 100 µM (inactive)	> 100 µM (inactive)	–	> 100 µM (inactive)	> 100 µM (inactive)	> 100 µM (inactive)	> 100 µM (inactive)	> 100 µM (inactive)	> 100 µM (inactive)	> 100 µM (inactive)	> 100 µM (inactive)	> 100 µM (inactive)	> 100 µM (inactive)	> 100 µM (inactive)	> 100 µM (inactive)	–	> 100 µM (inactive)
